{
  "source": "patent US20100285959A1",
  "about": "“HERBICIDAL MIXTURES” (priority 2006, published 2010)",
  "key": {"[1]": {"test_system": "arrowleaf sida (SIDRH)", "test": "Test 11 field trial, preemergence", "assay_type": "in vivo, Sida rhombifolia", "description": "(§1) Corn seeds (hybrid ‘Pioneer 3041’) were planted in mid spring season, 5 cm deep in a clay soil having 2.6% organic matter and a pH of 5.6. Plots were 8 m long by 1.5 m wide with rows spaced 80 cm apart. Seeds were spaced 15 cm apart within the rows. The field was managed using conventional tillage practices. […] Treatments consisted of Compound 2 or\n(§2) Goosegrass was not evaluated 16 or 91 days after application."}, "[2]": {"test_system": "common ragweed (AMBEL)", "test": "Test 5 field trial, postemergence", "assay_type": "in vivo, Ambrosia artemisiifolia", "description": "(§3) Corn seeds (hybrid ‘Pioneer 38H69’) were planted in mid spring season, 5.1 cm deep in a silty clay loam soil having 3% organic matter and a pH of 6.5. Plots were 9.1 m long by 3.0 m wide with rows spaced 76 cm apart. The field was managed using conventional tillage practices. […] All treatments included a surfactant except glufosinate treatments, both alone and in combination. […] Results are summarized in Table 5 and are the means of the three replicates."}, "[3]": {"test_system": "field pennycress (THLAR)", "test": "Test 1 field trial, preemergence", "assay_type": "in vivo, Thlaspi arvense", "settings": "28 DAA", "description": "Corn seeds (hybrid ‘Pioneer 34N43’) were planted in mid spring season, 3.8 cm deep in a silt loam soil having 4.6% organic matter and a pH of 6. Plots were 10.7 m long by 1.5 m wide with rows spaced 76 cm apart. Seeds were spaced 18 cm apart within the rows. The field was managed using conventional tillage practices. […] Results are summarized in Table 1 and are the means of the three replicates. […] Colby's Equation (Colby, S. R. “Calculating Synergistic and Antagonistic Responses of Herbicide Combinations,” Weeds, 15(1), pp 20-22 (1967)) calculates the expected additive effect of herbicidal mixtures, and for two active ingredients is of the form:\nPa+b=Pa+Pb−(PaPb/100) • wherein Pa+b is the percentage effect of the mixture expected from additive contribution of the individual components, • Pa is the observed percentage effect of the first active ingredient at the same use rate as in the mixture, and • Pb is the observed percentage effect of the second active ingredient at the same use rate as in the mixture."}, "[4]": {"test_system": "Surinam grass (BRADC)", "test": "Test 11 field trial, preemergence", "assay_type": "in vivo, Brachiaria decumbens", "set-up": "scale not given here", "settings": "alone or + atrazine 1500 or metolachlor 2500", "description": "as §1, §2"}, "[5]": {"test_system": "corn (ZEAMD)", "test": "Test 10 field trial, preemergence", "assay_type": "in vivo, Zea mays ssp. indentata", "settings": "hybrid Pioneer 33P65 RR, corn (Zea mays ssp. indentata), in vivo, 28 days after application", "description": "Corn seeds (hybrid ‘Pioneer 33P65 RR’) were planted in mid spring season, 2.5 cm deep in a silt loam soil. Plots were 9.1 m long by 3.0 m wide with rows spaced 76 cm apart. The field was managed using conventional tillage practices. […] Results are the means of the three replicates."}, "[6]": {"test_system": "large crabgrass (DIGSA)", "test": "Test 5 field trial, postemergence", "assay_type": "in vivo, Digitaria sanguinalis", "description": "as §3"}, "[7]": {"test_system": "Russian thistle (SASKR)", "test": "Test 23 growth chamber, postemergence", "assay_type": "in vivo, Salsola kali", "settings": "21 DAA", "procedure": "(§4) A test was conducted to evaluate the effects on winter barley (HORVW, Hordeum vulgare L.), winter wheat (TRZAW, Triticum aestivum L.), and several weed species of mixtures of Compound 2 with the commercial herbicides (2,4-dichlorophenoxy)acetic acid (2,4-D) and (4-chloro-2-methylphenoxy)acetic acid (MCPA), auxin mimics. […] Plants were treated postemergence at the 2-4 leaf growth stage, and each treatment was replicated three times. […] Plants were watered as needed. […] Results are means of the three replicates."}, "[8]": {"test_system": "kochia (KCHSC)", "test": "Test 23 growth chamber, postemergence", "assay_type": "in vivo, Kochia scoparia", "settings": "21 DAA", "procedure": "as §4"}, "[9]": {"test_system": "common lambsquarters (CHEAL)", "test": "Test 8 field trial, preemergence", "assay_type": "in vivo, Chenopodium album", "description": "Corn seeds (hybrid ‘Pioneer 31G96’) were planted in mid spring season, 3.8 cm deep in a clay loam soil having 2% organic matter and a pH of 6.6. Plots were 6.1 m long by 3.0 m wide with rows spaced 76 cm apart. Seeds were spaced 15 cm apart within the rows. The field was managed using conventional tillage practices. […] A few of the weed species could not be evaluated at every timing. […] Results are the means of the three replicates."}, "[10]": {"test_system": "henbit deadnettle (LAMAM)", "test": "Test 9 field trial, emerged weeds before corn planting", "assay_type": "in vivo, Lamium amplexicaule", "settings": "g a.i./ha: Cpd 2 100, Glyphosate 1540, Paraquat 1150", "procedure": "Corn seeds (hybrid ‘Pioneer 34M91 RR’) were planted in mid spring season, about 3.8 cm deep in a silty clay loam soil having a pH of 6.7. Plots were 9.1 m long by 3.0 m. The field was managed using no-till practices. […] Compound 2 and paraquat treatments, alone and in combination, also included a surfactant. Glyphosate, alone and with Compound 2, included ammonium sulfate in the treatment mixture. […] The effects on the weeds in the treated plots and untreated control plots were recorded 7, 14, 23, 30 and 57 days after application. Most of the weed species could not be evaluated at every timing. Corn response was only evaluated 57 days after application. […] Results are the means of the three replicates."}, "[11]": {"settings": "16 DAA, Cpd 2 30 g a.i./ha alone or with glufosinate 470 or glyphosate 1120"}, "[12]": {"settings": "16 DAA, Cpd 2 60 g a.i./ha alone or with atrazine 1120, glufosinate 470 or glyphosate 1120"}, "[13]": {"settings": "31 DAA, Cpd 2 30 g a.i./ha alone or with glufosinate 470 or glyphosate 1120"}, "[14]": {"settings": "31 DAA, Cpd 2 60 g a.i./ha alone or with atrazine 1120, glufosinate 470 or glyphosate 1120"}},
  "data": [
    {"smiles": "COC(=O)c1nc(C2CC2)nc(N)c1Cl", "note": "[Compound 2, methyl 6-amino-5-chloro-2-cyclopropyl-4-pyrimidinecarboxylate]", "values": [
      {"measurement": "SIDRH Obs", "setting": "[1]; 16 DAA, Cpd 2/Cpd 1 at 62 g a.i./ha, alone or + atrazine 1500 or metolachlor 2500", "result": 20},
      {"measurement": "SIDRH Obs", "setting": "[1]; 16 DAA, Cpd 2/Cpd 1 at 125 g a.i./ha, alone or + atrazine 1500 or metolachlor 2500", "result": 40},
      {"measurement": "SIDRH Obs", "setting": "[1]; 30 DAA, Cpd 2/Cpd 1 at 62 g a.i./ha, alone or + atrazine 1500 or metolachlor 2500", "result": 40},
      {"measurement": "SIDRH Obs", "setting": "[1]; 30 DAA, Cpd 2/Cpd 1 at 125 g a.i./ha, alone or + atrazine 1500 or metolachlor 2500", "result": 70},
      {"measurement": "SIDRH Obs", "setting": "[1]; 44 DAA, Cpd 2/Cpd 1 at 62 g a.i./ha, alone or + atrazine 1500 or metolachlor 2500", "result": 40},
      {"measurement": "SIDRH Obs", "setting": "[1]; 44 DAA, Cpd 2/Cpd 1 at 125 g a.i./ha, alone or + atrazine 1500 or metolachlor 2500", "result": 75},
      {"measurement": "SIDRH Obs", "setting": "[1]; 62 DAA, 62 g a.i./ha, scale 0 to 100", "result": 0},
      {"measurement": "SIDRH Obs", "setting": "[1]; 62 DAA, 125 g a.i./ha, scale 0 to 100", "result": 40},
      {"measurement": "SIDRH Obs", "setting": "[1]; 91 DAA, 62 g a.i./ha, scale 0 to 100", "result": 0},
      {"measurement": "SIDRH Obs", "setting": "[1]; 91 DAA, 125 g a.i./ha, scale 0 to 100", "result": 40},
      {"measurement": "AMBEL Obs", "setting": "[2]; [11]", "result": 85, "unit": "%"},
      {"measurement": "AMBEL Obs", "setting": "[2]; [12]", "result": 95, "unit": "%"},
      {"measurement": "AMBEL Obs", "setting": "[2]; [13]", "result": 83, "unit": "%"},
      {"measurement": "AMBEL Obs", "setting": "[2]; [14]", "result": 99, "unit": "%"},
      {"measurement": "THLAR Obs", "setting": "[3]; g a.i./ha: Cpd 2 50, S-Metolachlor 1870", "result": 0},
      {"measurement": "THLAR Obs", "setting": "[3]; g a.i./ha: Cpd 2 100, Atrazine 1680, S-Metolachlor 1870", "result": 0},
      {"measurement": "THLAR Obs", "setting": "[3]; g a.i./ha: Cpd 2 150, S-Metolachlor 1870", "result": 7},
      {"measurement": "BRADC Obs", "setting": "[4]; 16 DAA, Cpd 2/Cpd 1 at 62 g a.i./ha", "result": 40},
      {"measurement": "BRADC Obs", "setting": "[4]; 16 DAA, Cpd 2/Cpd 1 at 125 g a.i./ha", "result": 60},
      {"measurement": "BRADC Obs", "setting": "[4]; 30 DAA, Cpd 2/Cpd 1 at 62 g a.i./ha", "result": 40},
      {"measurement": "BRADC Obs", "setting": "[4]; 30 DAA, Cpd 2/Cpd 1 at 125 g a.i./ha", "result": 70},
      {"measurement": "BRADC Obs", "setting": "[4]; 44 DAA, Cpd 2/Cpd 1 at 62 g a.i./ha", "result": 0},
      {"measurement": "BRADC Obs", "setting": "[4]; 44 DAA, Cpd 2/Cpd 1 at 125 g a.i./ha", "result": 60},
      {"measurement": "BRADC Obs", "setting": "[4]; 62 DAA, Cpd 2/Cpd 1 at 62 g a.i./ha", "result": 0},
      {"measurement": "BRADC Obs", "setting": "[4]; 62 DAA, Cpd 2/Cpd 1 at 125 g a.i./ha", "result": 0},
      {"measurement": "BRADC Obs", "setting": "[4]; 91 DAA, Cpd 2/Cpd 1 at 62 g a.i./ha", "result": 0},
      {"measurement": "BRADC Obs", "setting": "[4]; 91 DAA, Cpd 2/Cpd 1 at 125 g a.i./ha", "result": 0},
      {"measurement": "ZEAMD Obs", "setting": "[5]", "result": 0, "unit": "%"},
      {"measurement": "DIGSA Obs", "setting": "[6]; [11]", "result": 0, "unit": "%"},
      {"measurement": "DIGSA Obs", "setting": "[6]; [12]", "result": 0, "unit": "%"},
      {"measurement": "DIGSA Obs", "setting": "[6]; [13]", "result": 0, "unit": "%"},
      {"measurement": "DIGSA Obs", "setting": "[6]; [14]", "result": 2, "unit": "%"},
      {"measurement": "Postemergence SASKR Obs", "setting": "[7]; Cpd 2 alone 4 g a.i./ha", "result": 55},
      {"measurement": "Postemergence SASKR Obs", "setting": "[7]; Cpd 2 alone 8 g a.i./ha", "result": 63},
      {"measurement": "Postemergence SASKR Obs", "setting": "[7]; Cpd 2 alone 16 g a.i./ha", "result": 72},
      {"measurement": "Postemergence KCHSC Obs", "setting": "[8]; Cpd 2 alone 4 g a.i./ha", "result": 53},
      {"measurement": "Postemergence KCHSC Obs", "setting": "[8]; Cpd 2 alone 8 g a.i./ha", "result": 60},
      {"measurement": "Postemergence KCHSC Obs", "setting": "[8]; Cpd 2 alone 16 g a.i./ha", "result": 70},
      {"measurement": "CHEAL Obs", "setting": "[9]; 19 DAA, g a.i./ha: Cpd 2 50, S-Metolachlor 1870", "result": 75, "unit": "%"},
      {"measurement": "CHEAL Obs", "setting": "[9]; 19 DAA, g a.i./ha: Cpd 2 100, Atrazine 1680, S-Metolachlor 1870", "result": 100, "unit": "%"},
      {"measurement": "CHEAL Obs", "setting": "[9]; 19 DAA, g a.i./ha: Cpd 2 150, S-Metolachlor 1870", "result": 100, "unit": "%"},
      {"measurement": "CHEAL Obs", "setting": "[9]; 56 DAA, g a.i./ha: Cpd 2 50, S-Metolachlor 1870", "result": 68, "unit": "%"},
      {"measurement": "CHEAL Obs", "setting": "[9]; 56 DAA, g a.i./ha: Cpd 2 100, Atrazine 1680, S-Metolachlor 1870", "result": 100, "unit": "%"},
      {"measurement": "CHEAL Obs", "setting": "[9]; 56 DAA, g a.i./ha: Cpd 2 150, S-Metolachlor 1870", "result": 100, "unit": "%"},
      {"measurement": "LAMAM Obs", "setting": "[10]; 7 DAA", "result": 22, "unit": "%"},
      {"measurement": "LAMAM Obs", "setting": "[10]; 14 DAA", "result": 27, "unit": "%"},
      {"measurement": "LAMAM Obs", "setting": "[10]; 23 DAA", "result": 50, "unit": "%"},
      {"measurement": "LAMAM Obs", "setting": "[10]; 30 DAA", "result": 65, "unit": "%"},
      {"measurement": "LAMAM Obs", "setting": "[10]; 57 DAA", "result": 89, "unit": "%"}
    ]}
  ]
}
